# Source: patent EP1477475A1, “Compounds for use as a medicine increasing the contractility of a heart, a heart muscle or cells of a heart muscle” (Procorde GmbH, priority 2003, dated 2004)
# Entries after “also recorded” stand apart in the source; their conditions may differ.
# Assays:
# [1] = test system: Gβγ-dependent activity of G protein-coupled receptor kinase 2 (GRK-2); assay: Rhodopsin phosphorylation assay (Gβγ-dependent GRK-2 activity); type: biochemical, bovine
# Description: All substances derived from the virtual screen were tested for their ability to inhibit the Gβγ-dependent activity of G protein-coupled receptor kinase 2 (GRK-2) in a rhodopsin phosphorylation assay. Stock solutions of 10mM of all compounds were dissolved in DMSO, for all assays (in vitro and cellular) DMSO was added in the same amount to the respective control group. The initial compound screen was carried out in a 96 well plate formate. The assay mix contained 15µM ATP, 10mM MgCl2, 20nM Gβγ (from bovine brain), 60nM GRK-2(purified from baculoviral culture), ^32P-ATP (approximately 200.000 cpm/assay point) and 10µM of the respective compound in 50µl assay buffer (20mM Hepes pH 7.2, 2mM EDTA); 600nM rhodopsin (purified from bovine retina) was added in the dark. Stimulation was achieved by incubation for 10-15 min under yellow light. Subsequently, the mix was aspirated with a cell harvester and applied onto a glass-fiber membrane (GF/C); then, the assay plate was washed 10 times with 10ml assay buffer each. The membrane was counted in a Wallac counter (Cerenkov). Additionally, 45µl of the assay mix were counted to determine the total amount of radioactivity in the assay. […]
# To test the ability of the compounds to inhibit Gβγ-dependent signalling a rhodopsin phosphorylation assay may be used. […] The effect of different compound concentrations may be determined in the same assay. […]
# [2] = test system: native M1 receptor in HEK 293 cells; assay: Calcium measurements (Fura-2) in HEK 293 cells after carbachol (Gq-coupled pathway); type: cell-based; conditions: Figure 8; 30 µM compound, 30 minutes pre-incubation; 100 µM carbachol
# [3] = test system: isolated rabbit cardiomyocytes; assay: Measurement of cell shortening of isolated cardiomyocytes; type: cell-based; conditions: Figure 10; 10 µM COM1 for 10 minutes, then isoproterenol 1x10^-9 - 1x10^-7M; n = 8 cells per group
# Description: Female New Zealand White rabbits (12 weeks old) were anesthesized with thiopental (75-1 00mg/kg) and 500 U heparin were injected intravenously. The thorax was opened and the heart was excised and put into ice-cold NaCl solution (0.9%). Fat and pericardium were removed. The aorta was attached to a perfusion system connected to a pump and the heart was retrogradely pefused at a flow rate of 20-40 ml/min with oxygenated (95% oxygen, 5% CO2) Powell medium (110mM NaCl, 2.5mM KCI, KH2PO4 1.2 mM, MgSO4 1.2 mM, NaHCO3 25 mM, Glucose 11 mM; pH 7.4) until all blood was washed out. […]
# Cell shortening was measured with an electro-optical monitoring system connected to an online digitalized assessment of amplitude and velocity of shortening and relaxation (Scientific Instruments). […] Cell shortening was monitored using an edge detection camera and the data were transferred to a computer and fractional shortening was calculated for a single cell.
# Overexpression of proteins which can bind Gβγ subunits, such as phosducin or the C-terminus of GRK-2, result in an increased contractility of cardiomyocytes. Therefore, the compounds' effects on this important parameter were determined. In isolated rabbit cardiomyocytes, basal, compound-incubated and isoproterenol- stimulated contractility were measured and expressed as fractional shortening of the single cell.
Structure (SMILES),"Effect of increasing concentrations of Gβγ on the inhibition of GRK-2-mediated phosphorylation of rhodopsin ([1]; Figure 3, COM2 3µM, GRK-2 50nM, rhodopsin 100nM, Gβγ 3 to 1000 nM, result at 1000 nM Gβγ)",Calcium release mediated via the Gq-coupled pathway [2],"Reversal of inhibition of Gβγ-dependent GRK-2 activity by increasing concentrations of the substrate rhodopsin ([1]; Figure 4, GRK-2 50 nM, COM1 30 µM, rhodopsin 10-3000 nM)","Isoproterenol-stimulated contractility (fractional shortening, contraction amplitude) [3]"
"O=C(Nc1ccccc1C(=O)O)c1ccc2c(c1)C(=O)N(c1ccc(Oc3ccc(N4C(=O)c5ccc(C(=O)Nc6ccccc6C(=O)O)cc5C4=O)cc3)cc1)C2=O [COM2, 2-[({2-[4-(4-{5-[(2-carboxyanilino)carbonyl]-1,3-dioxo-1,3-dihydro-2H-isoindol-2-yl}phenoxy)phenyl]-1,3-dioxo-2,3-dihydro-1H-isoindol-5-yl}carbonyl)amino]benzoic acid]",completely blunted; also recorded: completely reversed,does not have an effect,–,–
"O=C(Nc1ccc(-c2ccc(NC(=O)c3ccc(F)cc3)c(C(=O)O)c2)cc1C(=O)O)c1ccc(F)cc1 [COM1, 4,4'-bis[(4-fluorobenzoyl)amino][1,1'-biphenyl]-3,3'-dicarboxylic acid]",–,–,can be reversed,positive inotropic effect
"O=C(C=Cc1ccco1)Nc1ccc(-c2ccc(NC(=O)C=Cc3ccco3)c(C(=O)O)c2)cc1C(=O)O [COM3, 4,4'-bis{[3-(2-furyl)acryloyl]amino}[1,1'-biphenyl]-3,3'-dicarboxylic acid]",–,displays an inhibitory potential,–,–
